# Patent US20160046592A1, “PHARMACEUTICAL COMPOSITION FOR THE TREATMENT OF DIABETES” (Ajinomoto Co., Inc., priority 2013, published 2016)
# Structures can show the parent of a compound that is named as a salt.
# Target: T1, human GYS1 (glycogen synthase) (Homo sapiens, UniProt P13807)
# T1 construct: made in house; host or cells: HEK293T
# T1 sequence (P13807 1-737): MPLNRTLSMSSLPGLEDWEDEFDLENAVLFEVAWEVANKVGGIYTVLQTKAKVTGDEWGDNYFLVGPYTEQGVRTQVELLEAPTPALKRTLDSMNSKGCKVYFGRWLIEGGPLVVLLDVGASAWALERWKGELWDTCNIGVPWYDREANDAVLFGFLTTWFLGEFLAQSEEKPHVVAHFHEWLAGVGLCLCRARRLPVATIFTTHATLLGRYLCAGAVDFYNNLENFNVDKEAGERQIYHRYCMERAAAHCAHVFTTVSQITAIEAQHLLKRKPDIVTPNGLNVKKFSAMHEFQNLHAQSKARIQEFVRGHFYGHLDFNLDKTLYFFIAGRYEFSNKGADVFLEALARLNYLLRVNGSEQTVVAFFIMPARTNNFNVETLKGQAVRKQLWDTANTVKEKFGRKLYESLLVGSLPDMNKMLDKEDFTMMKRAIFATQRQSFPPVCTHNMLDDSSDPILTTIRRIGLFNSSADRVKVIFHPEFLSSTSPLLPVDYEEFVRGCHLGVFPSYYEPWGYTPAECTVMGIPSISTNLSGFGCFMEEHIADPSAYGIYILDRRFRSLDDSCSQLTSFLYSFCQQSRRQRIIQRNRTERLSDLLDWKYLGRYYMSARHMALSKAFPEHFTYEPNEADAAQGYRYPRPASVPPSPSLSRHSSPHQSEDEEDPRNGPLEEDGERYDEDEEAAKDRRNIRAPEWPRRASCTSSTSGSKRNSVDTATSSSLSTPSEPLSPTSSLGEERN
# Assay: Measurement of glycogen synthase activity
# Assay type: biochemical
# Details: concentration causing 50% increase in relative activity; 100% = compound of Example 1 of WO/2011/058154 at 10 μM; 10 mM Glucose-6-phosphate; 37° C. for 25 minutes (Examples 1 to 61 and 67 to 82) or 20 minutes (Examples 62 to 66); absorbance at 340 nm
# Experimental: A human GYS1 expression plasmid (pCDNA3.1(+)-hGYS1) was constructed by the following method. By using a human skeletal muscle cDNA of Human MTC Panel I (Takara Bio Inc., 636742) as a template, a human GYS1 gene was amplified by a PCR method using cloning primers (Forward Primer: ATGCCTTTAAACCGCAC, Reverse Primer: TTAGTTACGCTCCTCGC). By using the amplified human GYS1 sequence as a template, restriction enzyme sequences were added by a PCR method using sub-cloning primers (Forward Primer: […], and Reverse Primer: […]), and then the human GYS1 gene was introduced between Xho I and Xba I sites of pCDNA3.1(+) (Invitrogen, V790-20).
# Glycogen synthase was prepared by the following method. Human kidney-derived HEK293T cells were seeded in a dish (Thermo Fisher Scientific K.K., 168381) by using a 10% FBS-containing DMEM (Nacalai Tesque, Inc., 0845874) medium, and cultured overnight. Then, by using Lipofectamine LTX (Invitrogen, 15338-100), the cells were transfected with the human GYS1 expression vector according to the attached manual. After culturing under conditions of 37° C. and 5% CO2 for 2 days, the resultant was lysed in a lysis buffer (50 mM Tris-HCl (pH 8.0), 10 mM EDTA, 2 mM EGTA, 100 mM NaF, 1 mM PMSF, 1 mM DTT, and 1× Complete (Roche, 1873580)), homogenized, and then centrifuged at 16000×g at 4° C. for 15 minutes. The precipitated fraction re-dissolved by adding the lysis buffer was used as a glycogen synthase for evaluation.
# The glycogen synthase activity was measured by the following method. To a polystyrene 96-well plate, solutions each containing 30 mM glycylglycine (pH 7.3), 40 mM KCl, 20 mM MgCl2, 9.2% DMSO containing one of the test compounds at one of various concentrations, and 10 mM Glucose-6-phosphate (Sigma-Aldrich, G7879) were added at 12 μL/well.
# Next, a substrate solution containing 30 mM glycylglycine (pH 7.3), 4.3 mg/mL glycogen (Sigma-Aldrich, G8876), 21.6 mM UDP-glucose (Sigma-Aldrich, U4625), 21.6 mM phosphoenolpyruvic acid (Sigma-Aldrich, P0564), and 4.05 mM NADH (Sigma-Aldrich, N8129) was added at 18 μL/well.
# Moreover, an enzyme solution containing 50 mM Tris-HCl (pH 8.0), 27 mM DTT (NACALAI TESQUE, INC., 14128-04), 0.2 mg/mL bovine serum albumin, 0.17 mg/mL glycogen synthase, and 1.5 μL pyruvate kinase/lactate dehydrogenase solution (Sigma-Aldrich, P0294) was added at 18 μL/well to prepare reaction solutions. After the reaction solutions were incubated (at 37° C. for 25 minutes for Examples 1 to 61 and 67 to 82 or at 37° C. for 20 minutes for Examples 62 to 66), the absorbance at 340 nm was measured by using Benchmark Plus (Bio-Rad Laboratories, Inc.).
# The activity of each test compound was calculated by the following method. The absorbance at 340 nm of the reaction solution containing the compound and DMSO was subtracted from the absorbance at 340 nm of a reaction solution not containing the compound but containing only DMSO to calculate the change (ΔA340) in absorbance. The relative activity (%) of the test compound at each of the various concentrations was calculated, where the ΔA340 of a reaction solution containing the compound of Example 1 of WO/2011/058154 at a final concentration of 10 μM was taken as 100%. EC50 representing the concentration of the compound at which an increase in the relative activity by 50% was caused was calculated using XLfit (idbs).
row,Structure (SMILES),EC50 [nM]
1,"NC(=O)C1CC[C@@H](C(=O)O)N1C(=O)c1cccc(COc2ccc(-c3cc(F)c(F)c4ccoc34)cc2)c1 (single isomer, unassigned) [Example 76, (2S,5S) or (2S,5R)-5-Carbamoyl-1-[3-[[4-(4,5-difluorobenzofuran-7-yl)phenoxy]methyl]benzoyl]pyrrolidine-2-carboxylic Acid]",22
2,"COC1CCN(C(=O)c2cccc(COc3ccc(-c4cc(F)c(F)cc4SC)cc3)c2)C1C(=O)O (stereo in doubt) [Example 33, (2S,3S)-1-[3-[[4-(4,5-Difluoro-2-methylsulfanyl-phenyl)phenoxy]methyl]benzoyl]-3-methoxy-pyrrolidine-2-carboxylic Acid]",21
3,"NC(=O)CN(CC(=O)O)C(=O)c1cccc(COc2ccc(-c3cc(F)c(F)c4ccoc34)cc2)c1 [Example 1, 2-[(2-Amino-2-oxo-ethyl)-[3-[[4-(4,5-difluorobenzofuran-7-yl)phenoxy]methyl]benzoyl]amino]acetic Acid]",13
4,"O=C(O)[C@@H]1[C@H](O)CCN1C(=O)c1cccc(COc2ccc(-c3cc(F)c(F)c4ccoc34)cc2)c1 [Example 3, (2S,3R)-1-[3-[[4-(4,5-Difluorobenzofuran-7-yl)phenoxy]methyl]benzoyl]-3-hydroxy-pyrrolidine-2-carboxylic Acid]",16
5,"COCCN(CC(=O)O)C(=O)c1cccc(COc2ccc(-c3cc(F)c(F)cc3SC)cc2)c1 [Example 6, 2-[[3-[[4-(4,5-Difluoro-2-methylsulfanyl-phenyl)phenoxy]methyl]benzoyl]-(2-methoxyethyl)amino]acetic Acid]",17
6,"CSc1cc(F)c(F)cc1-c1ccc(OCc2cccc(C(=O)N(CCC#N)CC(=O)O)c2)cc1 [Example 7, 2-[2-Cyanoethyl-[3-[[4-(4,5-difluoro-2-methylsulfanyl-phenyl)phenoxy]methyl]benzoyl]amino]acetic Acid]",11
7,"CS(=O)(=O)CCN(CC(=O)O)C(=O)c1cccc(COc2ccc(-c3cc(F)c(F)c4ccoc34)cc2)c1 [Example 8, 2-[[3-[[4-(4,5-Difluorobenzofuran-7-yl)phenoxy]methyl]benzoyl]-(2-methylsulfonylethyl)amino]acetic Acid]",15
8,"O=C(O)CN(CC1CCOCC1)C(=O)c1cccc(COc2ccc(-c3cc(F)c(F)c4ccoc34)cc2)c1 [Example 9, 2-[[3-[[4-(4,5-Difluorobenzofuran-7-yl)phenoxy]methyl]benzoyl]-(tetrahydropyran-4-ylmethyl)amino]acetic Acid]",16
9,"CN(C)C(=O)CN(CC(=O)O)C(=O)c1cccc(COc2ccc(-c3cc(F)c(F)c4ccoc34)cc2)c1 [Example 11, 2-[[3-[[4-(4,5-Difluorobenzofuran-7-yl)phenoxy]methyl]benzoyl]-[2-(dimethylamino)-2-oxo-ethyl]amino]acetic Acid]",10
10,"O=C(O)CN(CC1CCNCC1)C(=O)c1cccc(COc2ccc(-c3cc(F)c(F)c4ccoc34)cc2)c1 [Example 12, 2-[[3-[[4-(4,5-Difluorobenzofuran-7-yl)phenoxy]methyl]benzoyl]-(4-piperidylmethyl)amino]acetic Acid Trifluoroacetate]",16
11,"CN(C)CCN(CC(=O)O)C(=O)c1cccc(COc2ccc(-c3cc(F)c(F)c4ccoc34)cc2)c1 [Example 13, 2-[[3-[[4-(4,5-Difluorobenzofuran-7-yl)phenoxy]methyl]benzoyl]-(2-dimethylaminoethyl)amino]acetic Acid Trifluoroacetate]",15
12,"Cc1coc2c(-c3ccc(OCc4cccc(C(=O)N(CCS(C)(=O)=O)CC(=O)O)c4)cc3)cc(F)c(F)c12 [Example 14, 2-[[3-[[4-(4,5-Difluoro-3-methyl-benzofuran-7-yl)phenoxy]methyl]benzoyl]-(2-methylsulfonylethyl)amino]acetic Acid]",15
13,"CNC(=O)CN(CC(=O)O)C(=O)c1cccc(COc2ccc(-c3cc(F)c(F)c4ccoc34)cc2)c1 [Example 15, 2-[[3-[[4-(4,5-Difluorobenzofuran-7-yl)phenoxy]methyl]benzoyl]-[2-(methylamino)-2-oxo-ethyl]amino]acetic Acid]",13

# Further lines, results first:
row,EC50 [nM],Structure (SMILES)
1,< 3,"NC(=O)C1CC[C@@H](C(=O)O)N1C(=O)c1cccc(COc2ccc(-c3cc(F)c(F)c4ccoc34)cc2)c1 (single isomer, unassigned) [Example 4, (2S,5R) or (2S,5S)-5-Carbamoyl-1-[3-[[4-(4,5-difluorobenzofuran-7-yl)phenoxy]methyl]benzoyl]pyrrolidine-2-carboxylic Acid]"
2,10,"CSc1cc(F)c(F)cc1-c1ccc(OCc2cccc(C(=O)N3C(C(N)=O)CC[C@H]3C(=O)O)c2)cc1 (single isomer, unassigned) [Example 57, (2S,5R) or (2S,5S)-5-Carbamoyl-1-[3-[[4-(4,5-difluoro-2-methylsulfanyl-phenyl)phenoxy]methyl]benzoyl]pyrrolidine-2-carboxylic Acid]"
3,7.3,"CSc1cc(F)c(F)cc1-c1ccc(OCc2cccc(C(=O)N3C(C(N)=O)CC[C@H]3C(=O)O)c2)cc1 (single isomer, unassigned) [Example 58, (2S,5S) or (2S,5R)-5-Carbamoyl-1-[3-[[4-(4,5-difluoro-2-methylsulfanyl-phenyl)phenoxy]methyl]benzoyl]pyrrolidine-2-carboxylic Acid]"
4,4.3,"O=C(O)[C@@H]1[C@@H](O)CCN1C(=O)c1cccc(COc2ccc(-c3cc(F)c(F)c4ccoc34)cc2)c1 [Example 2, (2S,3S)-1-[3-[[4-(4,5-Difluorobenzofuran-7-yl)phenoxy]methyl]benzoyl]-3-hydroxy-pyrrolidine-2-carboxylic Acid]"
5,< 10,"CSc1cc(F)c(F)cc1-c1ccc(OCc2cccc(C(=O)N3CC[C@H](O)[C@H]3C(=O)O)c2)cc1 [Example 5, (2S,3S)-1-[3-[[4-(4,5-Difluoro-2-methylsulfanyl-phenyl)phenoxy]methyl]benzoyl]-3-hydroxy-pyrrolidine-2-carboxylic Acid]"
6,7.2,"CSc1cc(F)c(F)cc1-c1ccc(OCc2cccc(C(=O)N(CC(N)=O)CC(=O)O)c2)cc1 [Example 10, 2-[(2-Amino-2-oxo-ethyl)-[3-[[4-(4,5-difluoro-2-methylsulfanyl-phenyl)phenoxy]methyl]benzoyl]amino]acetic Acid]"
